In PubChem BioAssay (NCI):
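Grown in 96-well plates, cells were treated for 48 hours with each compound at five concentrations. Insufficient inhibition: endpoint recorded as highest concentration tested. Here, GI50 denotes the concentration required for 50% inhibition of growth. TGI: total growth inhibition.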

Legend:
Assay in all cases: DTP human tumour cell line panel, 48 h
[1] = test system: SK-MEL-5 melanoma
[2] = test system: RPMI-8226 leukemia
[3] = test system: A498 renal
[4] = test system: SN12C renal
[5] = test system: PC-3 prostate
[6] = test system: OVCAR-5 ovarian
[7] = test system: SR leukemia
[8] = test system: HL-60(TB) leukemia
[9] = test system: U251 CNS
[10] = test system: NCI-H522 lung

Row | Compound | TGI [1] | TGI [2] | TGI [3] | TGI [4] | TGI [5] | TGI [6] | TGI [7] | TGI [8] | TGI [9] | TGI [10] | GI50 [2] | GI50 [4] | GI50 [5] | GI50 [1] | GI50 [10] | GI50 [6] | GI50 [7] | GI50 [9]
1 | N#Cc1nc(Cc2cccs2)oc1N | > 100 µM | > 100 µM | > 100 µM | > 100 µM | > 100 µM | > 100 µM | > 100 µM | > 100 µM | > 100 µM | – | – | – | – | – | – | – | – | –
2 | CC(C)(C)OC(=O)N[C@@H](Cc1ccccc1)C(=O)N1CC[C@@H](C(=O)N2[C@H]3CC4CC[C@@]3(CS2(=O)=O)C4(C)C)N1 | 75 µM | > 100 µM | > 100 µM | > 100 µM | > 100 µM | > 100 µM | > 100 µM | > 100 µM | > 100 µM | – | – | – | – | – | – | – | – | –
3 | CC1(C)CN=C(c2ccc3ccccc3c2O)N1 | > 100 µM | > 100 µM | > 100 µM | > 100 µM | > 100 µM | > 100 µM | > 100 µM | > 100 µM | > 100 µM | – | – | – | – | – | – | – | – | –
4 | COC(=O)C[C@H]1[C@]2(C)C3=C(C)[C@H](c4ccoc4)CC3O[C@@H]2[C@@H]2OC(=O)[C@]3(C)CCC(=O)[C@@]1(C)[C@@H]23 (some centres not stated) | > 100 µM | 50.1 µM | > 100 µM | > 100 µM | – | 67.3 µM | 59.6 µM | 54.8 µM | > 100 µM | 91.1 µM | – | – | – | – | – | – | – | –
5 | CN(NC(=O)/C(=C/C=C/c1ccccc1)NC(=O)c1ccccc1)C1=C(Cl)C(=O)[N+](c2ccccc2)=CC1 | 27.4 µM | 63.2 µM | > 100 µM | 66 µM | > 100 µM | > 100 µM | 66.6 µM | – | 40.2 µM | 61.5 µM | – | – | – | – | – | – | – | –
6 | CC[N+]1(C)CCC(O)(/C=C/c2ccc(Cl)c(Cl)c2)C(C(=O)/C=C/c2ccc(Cl)c(Cl)c2)C1 (configuration not stated) | 7.68 µM | 5.7 µM | 7.12 µM | 3.61 µM | 5.19 µM | 7.13 µM | > 22.7 µM | – | 3.71 µM | 3.34 µM | – | – | – | – | – | – | – | –
7 | CC(=O)N/N=C1\NN(C(C)=O)C2(S1)C(=O)Nc1ccccc12 (configuration not stated) | > 100 µM | > 100 µM | – | > 100 µM | > 100 µM | > 100 µM | > 100 µM | > 100 µM | > 100 µM | > 100 µM | – | – | – | – | – | – | – | –
8 | NC(=S)NS(=O)(=O)c1ccc(Cl)cc1Cl | > 100 µM | > 100 µM | – | > 100 µM | > 100 µM | > 100 µM | – | > 100 µM | > 100 µM | > 100 µM | – | – | – | – | – | – | – | –
9 | CCCCCCCCCC[C@@H](O)[C@H]1CC[C@@H]([C@H]2CC[C@H]([C@H](O)CCCCCCCCCC[C@@H]3CC(CC(C)=O)C(=O)O3)O2)O1 (some centres not stated) | 16.2 µM | 26.2 µM | 97 µM | – | 99.4 µM | > 100 µM | – | – | – | 37.1 µM | 5.03 µM | 26.7 µM | 25.4 µM | – | – | – | – | –
10 | C=C1C[C@]23CC[C@@H]4C(CO)(CO)CC(=O)C[C@]4(C)[C@@H]2C(O)C[C@H]1C3 (some centres not stated) | – | > 100 µM | – | > 100 µM | > 100 µM | > 100 µM | > 100 µM | > 100 µM | > 100 µM | > 100 µM | – | – | – | – | – | – | – | –
11 | O=C(O)C1(Cc2ccc3c(c2)CCC3)Cc2cc3c(cc2C1)CCC3 | > 100 µM | > 100 µM | > 100 µM | – | > 100 µM | > 100 µM | > 100 µM | > 100 µM | > 100 µM | – | – | – | – | – | – | – | – | –
12 | COc1cccc(C2c3cc4c(cc3OC(N3CCOCC3)C2C)OCO4)c1 (configuration not stated) | 15.6 µM | > 100 µM | – | > 100 µM | 44.4 µM | 71.4 µM | > 100 µM | – | – | 75.3 µM | – | – | – | – | – | – | – | –
13 | CCCS(=O)OC1C(C2COC(C)(C)O2)OC2OC(C)(C)OC21 (configuration not stated) | 27.7 µM | 12.8 µM | 97 µM | 31.8 µM | 24 µM | 26.1 µM | 4.34 µM | – | 28.4 µM | 25.9 µM | – | – | – | – | – | – | – | –
14 | O=C(n1c(=O)n(-c2ccc([N+](=O)[O-])cc2)c(=O)n1C(=O)C(Cl)(Cl)Cl)C(Cl)(Cl)Cl | > 100 µM | > 100 µM | > 100 µM | > 100 µM | > 100 µM | > 100 µM | – | > 100 µM | > 100 µM | > 100 µM | – | – | – | – | – | – | – | –
15 | Cc1ccc(N=Nc2cc(=O)[nH]c(=O)[nH]2)cc1C | 30.4 µM | 14 µM | 36.9 µM | 18.6 µM | 11.7 µM | 28.8 µM | > 100 µM | 7.18 µM | 29.1 µM | – | – | – | – | – | – | – | – | –
16 | NC(=O)CN1CCN(c2nc(N3CCCC3)c3nc(Cl)c(NCc4ccccc4)nc3n2)CC1 | 15.7 µM | 19.8 µM | – | 16.9 µM | 24.9 µM | 17.9 µM | – | 19.2 µM | 15.5 µM | 24.1 µM | – | – | – | – | – | – | – | –
17 | COc1cc(/C=C/C=C2\CC(C)C/C(=C\C=C\c3ccc(O)c(OC)c3)C2=O)ccc1O (configuration not stated) | 37.6 µM | 48.1 µM | – | > 100 µM | 48.8 µM | 28.8 µM | 91.4 µM | 33.8 µM | 33 µM | 2.5 µM | – | – | – | – | – | – | – | –
18 | Cc1cccc(-c2cc(=O)c3c(C)ccnc3[nH]2)c1 | 27.8 µM | 26.1 µM | > 100 µM | > 100 µM | > 100 µM | > 100 µM | – | 0.703 µM | > 100 µM | 0.798 µM | – | – | – | – | – | – | – | –
19 | COc1cccc2c1C(=O)c1c(O)c3c(c(O)c1C2=O)C[C@](O)(C(=O)CO)CC3OC1CC(N)C(OC2CCCCO2)C(C)O1 (some centres not stated) | 1.34 µM | 5.12 µM | 0.766 µM | 3.12 µM | – | 2.17 µM | – | 0.294 µM | 0.899 µM | 2.62 µM | – | – | – | – | – | – | – | –
20 | O=c1c2cc(Cl)ccc2n2nnc3ccc(NCCNCCO)c1c32 | 2.86 µM | 10.2 µM | 2.86 µM | 2.88 µM | 2.75 µM | 3.42 µM | – | 9.77 µM | 1.94 µM | 3.03 µM | – | – | – | – | – | – | – | –
21 | Cn1c(=O)n2n(c1=O)C1C(=CC2)C2C=CC1n1c(=O)n(C)c(=O)n12 (configuration not stated) | > 100 µM | > 100 µM | > 100 µM | > 100 µM | > 100 µM | > 100 µM | – | > 100 µM | > 100 µM | > 100 µM | – | – | – | – | – | – | – | –
22 | CCC[CH2][Ge]([CH2]CCC)([CH2]CCC)[O]C(=O)CCl | 3.36 µM | – | – | 19.3 µM | – | 26.2 µM | 68.5 µM | – | 16.6 µM | – | – | 1.46 µM | – | 0.305 µM | 0.214 µM | 12.3 µM | 0.836 µM | 0.889 µM
23 | Cc1cc(=O)[nH]c(S(=O)(=O)NC(=S)Nc2ccc(Br)cc2)n1 | > 100 µM | > 100 µM | > 100 µM | > 100 µM | > 100 µM | > 100 µM | – | > 100 µM | > 100 µM | 70 µM | – | – | – | – | – | – | – | –
